Target: T1, human orexin type 2 receptor (Homo sapiens, UniProt O43614)
T1 construct: expressed in transfected cells
T1 sequence (O43614 1-444): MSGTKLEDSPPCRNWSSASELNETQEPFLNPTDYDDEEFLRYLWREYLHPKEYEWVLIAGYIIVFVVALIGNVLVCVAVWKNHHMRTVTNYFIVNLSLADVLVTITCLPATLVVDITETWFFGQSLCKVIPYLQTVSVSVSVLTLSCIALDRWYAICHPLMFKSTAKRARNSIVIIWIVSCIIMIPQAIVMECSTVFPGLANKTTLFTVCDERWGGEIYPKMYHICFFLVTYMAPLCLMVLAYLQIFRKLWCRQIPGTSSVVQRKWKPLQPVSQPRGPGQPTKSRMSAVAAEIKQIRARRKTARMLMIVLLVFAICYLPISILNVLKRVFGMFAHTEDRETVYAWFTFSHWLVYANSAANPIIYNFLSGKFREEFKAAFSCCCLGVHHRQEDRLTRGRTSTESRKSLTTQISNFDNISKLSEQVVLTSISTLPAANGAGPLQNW
Experiment: Measurement of orexin type 2 receptor agonist activity (calcium fluorescence, Fluo-4 AM, FDSS) in CHO cells forcibly expressing human OX2 receptor
Type: cell-based
Settings: test compound 3 μM, DMSO = 0%, orexin A (human) 10 nM = 100%
How it was run: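 CHO-dhfr cells stably expressing human OX2 receptor, loaded with Fluo-4 AM plus probenecid for 30 min at 37 °C, then 30 min at room temperature. Calcium fluorescence read for about 2 min 40 s after compound addition. Activity (%) scaled between DMSO (0%) and 10 nM human orexin A (100%).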

| Structure (SMILES) | 0X2R agonist activity (3 μM, %) |
| --- | --- |
| CC(C)n1cnc2c(c1=O)[C@@H](Cc1cccc(-c3cc(F)cc(F)c3)c1)[C@@H](NS(=O)(=O)C1(F)CC1)CC2 (relative stereo) [Example 187, rel-N-[(5R,6S)-5-[(3′,5′-difluoro[1,1′-biphenyl]-3-yl)methyl]-4-oxo-3-(propan-2-yl)-3,4,5,6,7,8-hexahydroquinazolin-6-yl]-1-fluorocyclopropane-1-sulfonamide] | 94% |
| CC(C)n1cnc2c(c1=O)[C@@H](Cc1cccc(-c3ccccc3)c1F)[C@@H](NS(=O)(=O)C1CC1)[C@H](F)C2 (relative stereo) [Example 206, rel-N-[(5R,6R,7R)-7-fluoro-5-[(2-fluoro[1,1′-biphenyl]-3-yl)methyl]-4-oxo-3-(propan-2-yl)-3,4,5,6,7,8-hexahydroquinazolin-6-yl]cyclopropanesulfonamide] | 96% |
| Cc1ccc2n(c1=O)C(Cc1cccc(-c3cccc(F)c3)c1)C(NC(=O)[C@@H]1CCCO1)CC2 (stereo in doubt) [Example 44, (2S)-N-{(3S*,4S*)-4-[(3′-fluoro[1,1′-biphenyl]-3-yl)methyl]-7-methyl-6-oxo-1,3,4,6-tetrahydro-2H-quinolizin-3-yl}oxolane-2-carboxamide] | 96% |
| Cc1ccc2n(c1=O)C(Cc1cccc(-c3cccc(F)c3)c1F)C(NC(=O)[C@@H]1CCCO1)CC2 (stereo in doubt) [Example 54, (2S)-N-{(3S*,4S*)-4-[(2,3′-difluoro[1,1′-biphenyl]-3-yl)methyl]-7-methyl-6-oxo-1,3,4,6-tetrahydro-2H-quinolizin-3-yl}oxolane-2-carboxamide] | 97% |
| CC(C)n1cnc2c(c1=O)C(Cc1cccc(-c3cccc(F)c3)c1)C(NS(C)(=O)=O)CC2 [Example 89, rel-N-[(5R,6S)-5-[(3′-fluoro[1,1′-biphenyl]-3-yl)methyl]-4-oxo-3-(propan-2-yl)-3,4,5,6,7,8-hexahydroisoquinazolin-6-yl]methanesulfonamide] | 101% |
| CCS(=O)(=O)N[C@H]1CCc2ncn(C(C)C)c(=O)c2[C@H]1Cc1cccc(-c2cccc(F)c2)c1F [Example 170, N-[(5R,6S)-5-[(2,3′-difluoro[1,1′-biphenyl]-3-yl)methyl]-4-oxo-3-(propan-2-yl)-3,4,5,6,7,8-hexahydroquinazolin-6-yl]ethanesulfonamide] | 87% |
| CC(C)n1cnc2c(c1=O)[C@@H](Cc1cccc(-c3cc(F)cc(F)c3)c1)[C@@H](NS(=O)(=O)C1CC1)CC2 [Example 175, N-[(5R,6S)-5-[(3′,5′-difluoro[1,1′-biphenyl]-3-yl)methyl]-4-oxo-3-(propan-2-yl)-3,4,5,6,7,8-hexahydroquinazolin-6-yl]cyclopropanesulfonamide] | 85% |
| CCS(=O)(=O)N[C@H]1CCc2ncn(C(C)C)c(=O)c2[C@H]1Cc1cccc(-c2cc(F)cc(F)c2)c1 [Example 177, N-[(5R,6S)-5-[(3′,5′-difluoro[1,1′-biphenyl]-3-yl)methyl]-4-oxo-3-(propan-2-yl)-3,4,5,6,7,8-hexahydroquinazolin-6-yl]ethanesulfonamide] | 95% |
| CC(C)n1cnc2c(c1=O)[C@@H](Cc1cccc(-c3cccc(F)c3)c1F)[C@@H](NS(=O)(=O)C1(F)CC1)CC2 [Example 181, N-[(5R,6S)-5-[(2,3′-difluoro[1,1′-biphenyl]-3-yl)methyl]-4-oxo-3-(propan-2-yl)-3,4,5,6,7,8-hexahydroquinazolin-6-yl]-1-fluorocyclopropane-1-sulfonamide] | 91% |
| CC(C)n1cnc2c(c1=O)[C@@H](Cc1cccc(-c3cc(F)cc(F)c3)c1F)[C@@H](NS(=O)(=O)C1(F)CC1)CC2 [Example 182, 1-fluoro-N-{(5R,6S)-4-oxo-3-(propan-2-yl)-5-[(2,3′,5′-trifluoro[1,1′-biphenyl]-3-yl)methyl]-3,4,5,6,7,8-hexahydroquinazolin-6-yl}cyclopropane-1-sulfonamide] | 101% |
| CC(C)n1cnc2c(c1=O)[C@@H](Cc1cccc(-c3ccccc3F)c1F)[C@@H](NS(=O)(=O)C1(F)CC1)CC2 [Example 183, N-[(5R,6S)-5-[(2,2′-difluoro[1,1′-biphenyl]-3-yl)methyl]-4-oxo-3-(propan-2-yl)-3,4,5,6,7,8-hexahydroquinazolin-6-yl]-1-fluorocyclopropane-1-sulfonamide] | 95% |
| CC(C)n1cnc2c(c1=O)[C@@H](Cc1cccc(-c3cccc(F)c3F)c1F)[C@@H](NS(=O)(=O)C1(F)CC1)CC2 [Example 184, 1-fluoro-N-{(5R,6S)-4-oxo-3-(propan-2-yl)-5-[(2,2′,3′-trifluoro[1,1′-biphenyl]-3-yl)methyl]-3,4,5,6,7,8-hexahydroquinazolin-6-yl}cyclopropane-1-sulfonamide] | 98% |
| CC(C)n1cnc2c(c1=O)C(Cc1cccc(-c3ccccc3)c1)C(NS(=O)(=O)C1(F)CC1)CC2 (stereo not drawn) [Example 185, rel-N-{5-[([1,1′-biphenyl]-3-yl)methyl]-4-oxo-3-(propan-2-yl)-3,4,5,6,7,8-hexahydroquinazolin-6-yl}-1-fluorocyclopropane-1-sulfonamide] | 95% |
| CC(C)n1cnc2c(c1=O)C(Cc1cccc(-c3cccc(F)c3)c1)C(NS(=O)(=O)C1(F)CC1)CC2 (stereo not drawn) [Example 186, rel-1-fluoro-N-{5-[(3′-fluoro[1,1′-biphenyl]-3-yl)methyl]-4-oxo-3-(propan-2-yl)-3,4,5,6,7,8-hexahydroquinazolin-6-yl}cyclopropane-1-sulfonamide] | 90% |
| CC(C)n1cnc2c(c1=O)[C@@H](Cc1cccc(-c3cccc(F)c3)c1)[C@@H](NS(=O)(=O)C1CC1)CC2 [Example 188, N-[(5R,6S)-5-[(3′-fluoro[1,1′-biphenyl]-3-yl)methyl]-4-oxo-3-(propan-2-yl)-3,4,5,6,7,8-hexahydroquinazolin-6-yl]cyclopropanesulfonamide] | 107% |
| CC(C)n1cnc2c(c1=O)C(Cc1cccc(-c3cccc(F)c3F)c1)C(NS(=O)(=O)C1(F)CC1)CC2 (stereo not drawn) [Example 191, rel-N-{5-[(2′,3′-difluoro[1,1′-biphenyl]-3-yl)methyl]-4-oxo-3-(propan-2-yl)-3,4,5,6,7,8-hexahydroquinazolin-6-yl}-1-fluorocyclopropane-1-sulfonamide] | 90% |
| CC(C)n1cnc2c(c1=O)[C@@H](Cc1cccc(-c3ccccc3F)c1)[C@@H](NS(=O)(=O)C1CC1)CC2 [Example 192, N-[(5R,6S)-5-[(2′-fluoro[1,1′-biphenyl]-3-yl)methyl]-4-oxo-3-(propan-2-yl)-3,4,5,6,7,8-hexahydroquinazolin-6-yl]cyclopropanesulfonamide] | 101% |
| CC(C)n1cnc2c(c1=O)[C@@H](Cc1cccc(-c3cccc(F)c3F)c1)[C@@H](NS(=O)(=O)C1CC1)CC2 [Example 193, N-[(5R,6S)-5-[(2′,3′-difluoro[1,1′-biphenyl]-3-yl)methyl]-4-oxo-3-(propan-2-yl)-3,4,5,6,7,8-hexahydroquinazolin-6-yl]cyclopropanesulfonamide] | 97% |
| CC(C)n1cnc2c(c1=O)C(Cc1csc(-c3ccccc3)n1)C(NS(=O)(=O)C1(F)CC1)CC2 (stereo not drawn) [Example 194, rel-1-fluoro-N-{4-oxo-5-[(2-phenyl-1,3-thiazol-4-yl)methyl]-3-(propan-2-yl)-3,4,5,6,7,8-hexahydroquinazolin-6-yl}cyclopropane-1-sulfonamide] | 91% |
| CC(C)n1cnc2c(c1=O)[C@@H](Cc1cccc(-c3cccc(F)c3F)c1F)[C@@H](NS(=O)(=O)CF)CC2 [Example 196, 1-fluoro-N-{(5R,6S)-4-oxo-3-(propan-2-yl)-5-[(2,2′,3′-trifluoro[1,1′-biphenyl]-3-yl)methyl]-3,4,5,6,7,8-hexahydroquinazolin-6-yl}methanesulfonamide] | 91% |
| CC(C)n1cnc2c(c1=O)[C@@H](Cc1cccc(-c3cc(F)cc(F)c3)c1F)[C@@H](NS(=O)(=O)CF)CC2 [Example 199, 1-fluoro-N-{(5R,6S)-4-oxo-3-(propan-2-yl)-5-[(2,3′,5′-trifluoro[1,1′-biphenyl]-3-yl)methyl]-3,4,5,6,7,8-hexahydroquinazolin-6-yl}methanesulfonamide] | 90% |
| CCS(=O)(=O)N[C@H]1CCc2ncn(C(C)C)c(=O)c2[C@H]1Cc1cccc(-c2cccc(F)c2F)c1 [Example 200, N-[(5R,6S)-5-[(2′,3′-difluoro[1,1′-biphenyl]-3-yl)methyl]-4-oxo-3-(propan-2-yl)-3,4,5,6,7,8-hexahydroquinazolin-6-yl]ethanesulfonamide] | 89% |
| CC(C)n1c(=O)c2c(n1C)CCC(NS(C)(=O)=O)C2Cc1cccc(-c2ccccc2)c1 [Example 208, rel-N-[(4aR,5S)-4-[([1,1′-biphenyl]-3-yl)methyl]-1-methyl-3-oxo-2-(propan-2-yl)-2,3,4,5,6,7-hexahydro-1H-indazol-5-yl]methanesulfonamide] | 95% |
